# Experimental data: ChEMBL document CHEMBL5518242, “Discovery and Optimization of Novel Nonbile Acid FXR Agonists as Preclinical Candidates for the Treatment of Inflammatory Bowel Disease” (J Med Chem, 2024)
# Settings: human, caco-2
# Description: Permeability in human Caco-2 cells
structure (smiles),measurement,value
Cn1cc(C(=O)O)c2ccc(N3CCC(OCc4c(-c5c(Cl)cccc5Cl)noc4C4CC4)CC3)cc21 [TERN-101],permeability,Permeable
